Like-named read-outs stand apart in the source and are kept apart here.
Columns and labels:
[1] = test system: human multiple myeloma cell line, OPM-2; experiment: Cell viability assay (OPM-2 10 FBS), CellTiter-Glo; format: cell-based
Outline: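 Steps: plate cells at 3000/well in 10% FBS growth medium, add serially diluted compound, incubate 16 h at 37 °C with 5% CO2, add detection reagent and read luminescence after 25 min. A 4-parameter logistic model gives IC50.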

[2] = molecular target: recombinant human Mcl-1 (residues 171-327) / Bim interaction (Homo sapiens (Human), UniProt Q07820); experiment: biochemical; format: binding; details: read-out: Mcl-1 HTRF IC50
Chain of recombinant human Mcl-1 (residues 171-327) / Bim interaction (Q07820 171-327): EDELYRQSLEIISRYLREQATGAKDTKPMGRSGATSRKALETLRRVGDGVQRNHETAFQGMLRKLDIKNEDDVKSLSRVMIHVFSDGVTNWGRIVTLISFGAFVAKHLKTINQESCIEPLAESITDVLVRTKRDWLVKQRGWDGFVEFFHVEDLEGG

[3] = 0.1 nM Mcl-1(171-327), 0.05 nM biotin-Bim (51-76)
[4] = read-out: OPM-2 10% FBS IC50 IP, OPM-2 cells, 10% FBS, 16 h incubation
[5] = Homo sapiens, OPM-2, 16 h, read-out: OPM-2 10% FBS IC50 IP, OPM-2 cells, 10% FBS, 16 h, CellTiter-Glo
[6] = TR-FRET, Mcl-1(171-327) / biotin-Bim (51-76)

Row | SMILES | IC50 ([1]; Homo sapiens, OPM-2, 16 h, read-out: OPM-2 10% FBS IC50 IP, OPM-2 cells, 10% FBS, 16 h incubation) [nM] | IC50 [2, 3] [nM] | IC50 [1, 4] [nM] | IC50 [1, 5] [nM] | IC50 [2, 6] [nM]
1 | C[C@@H]1[C@@H](C)C/C=C/[C@@](O)(CN2CCN3CCCC[C@@H]3C2)[C@@H]2CC[C@H]2CN2C[C@@]3(CCCc4cc(Cl)ccc43)COc3ccc(cc32)C(=O)NS1(=O)=O (racemic) [Example 236] | 87 | 0.097 |  |  | 
2 | CO[C@@]1(CN2CCN3CCC(F)(F)CC3C2)/C=C/C[C@H](C)[C@@H](C)S(=O)(=O)NC(=O)c2ccc3c(c2)N(C[C@@H]2CC[C@H]21)C[C@@]1(CCCc2cc(Cl)ccc21)CO3 (mixture of isomers) [Example 273] |  | 0.494 | 501 |  | 
3 | CO[C@@]1(C[C@@H](O)C(C)C)/C=C/C[C@H](C)[C@@H](C)S(=O)(=O)NC(=O)c2ccc3c(c2)N(C[C@@H]2CC[C@H]21)C[C@@]1(CCCc2cc(Cl)ccc21)CO3 (racemic) [Example 100326, (1S,3′R,6′R,7′S,8′E,11′S,12′R)-6-chloro-7′-((2R)-2-hydroxy-3-methylbutyl)-7′-methoxy-11′,12′-dimethyl-3,4-dihydro-2H,15′H-spiro[naphthalene-1,22′-[20]oxa[13]thia[1,14]diazatetracyclo [14.7.2.0~3,6~.0~19,24~]pentacosa[8,16,18,24]tetraen]-15′-one 13′,13′-dioxide] |  |  |  | 334 | 0.615
4 | CO[C@@]1(C[C@@H](O)C2CC2)/C=C/C[C@H](C)[C@@H](C)S(=O)(=O)NC(=O)c2ccc3c(c2)N(C[C@@H]2CC[C@H]21)C[C@@]1(CCCc2cc(Cl)ccc21)CO3 (racemic) [Example 100437, (1S,3′R,6′R,7′S,8′E,11′S,12′R)-6-chloro-7′-((2R)-2-cyclopropyl-2-hydroxyethyl)-7′-methoxy-11′,12′-dimethyl-3,4-dihydro-2H,15′H-spiro[naphthalene-1,22′-[20]oxa[13]thia[1,14]diazatetracyclo [14.7.2.0~3,6~.0~19,24~]pentacosa[8,16,18,24]tetraen]-15′-one 13′,13′-dioxide] |  |  |  | 531 | 0.073
5 | CO[C@]1(CN2CC[C@H]3CCCC[C@@H]3C2)/C=C/C[C@H](C)[C@@H](C)S(=O)(=O)NC(=O)c2ccc3c(c2)N(C[C@@H]2CC[C@H]21)C[C@@]1(CCCc2cc(Cl)ccc21)CO3 (single isomer, unassigned) [Example 89] |  | 3.75 | 8210 |  | 
6 | CO[C@]1(CN2CC[C@@H]3CCCC[C@H]3C2)/C=C/C[C@H](C)[C@@H](C)S(=O)(=O)NC(=O)c2ccc3c(c2)N(C[C@@H]2CC[C@H]21)C[C@@]1(CCCc2cc(Cl)ccc21)CO3 (single isomer, unassigned) [Example 90] |  | 4.66 | 8980 |  | 
7 | CO[C@@]1(CN2CCN3CCOC[C@@H]3C2)/C=C/C[C@H](C)[C@@H](Cc2ccccc2)S(=O)(=O)NC(=O)c2ccc3c(c2)N(C[C@@H]2CC[C@H]21)C[C@@]1(CCCc2cc(Cl)ccc21)CO3 (single isomer, unassigned) [Example 102] |  | 0.182 | 416 |  | 
8 | C[C@@H]1[C@@H](C)C/C=C/[C@]2(CNC(=O)O2)[C@@H]2CC[C@H]2CN2C[C@@]3(CCCc4cc(Cl)ccc43)COc3ccc(cc32)C(=O)NS1(=O)=O (single isomer, unassigned) [Example 128] |  | 0.256 | 19600 |  | 
9 | C[C@@H]1[C@@H](C)C/C=C/[C@]2(CN3CCN(C)C[C@@H]3CO2)[C@@H]2CC[C@H]2CN2C[C@@]3(CCCc4cc(Cl)ccc43)COc3ccc(cc32)C(=O)NS1(=O)=O (single isomer, unassigned) [Example 132] |  | 0.613 | 263 |  | 
10 | C[C@@H]1[C@@H](C)C/C=C/[C@]2(CN3CCN(C)C[C@@H]3CO2)[C@@H]2CC[C@H]2CN2C[C@@]3(CCCc4cc(Cl)ccc43)COc3ccc(cc32)C(=O)NS1(=O)=O (single isomer, unassigned) [Example 133] |  | 0.189 | 136 |  | 
11 | CO[C@]1(CN2CCN3CCS(=O)(=O)C[C@@H]3C2)/C=C/C[C@H](C)[C@@H](C)S(=O)(=O)NC(=O)c2ccc3c(c2)N(C[C@@H]2CC[C@H]21)C[C@@]1(CCCc2cc(Cl)ccc21)CO3 (single isomer, unassigned) [Example 220] |  | 0.052 | 42 |  | 
12 | CO[C@]1(CN2CCN3CCS(=O)(=O)C[C@@H]3C2)/C=C/C[C@H](C)[C@@H](C)S(=O)(=O)NC(=O)c2ccc3c(c2)N(C[C@@H]2CC[C@H]21)C[C@@]1(CCCc2cc(Cl)ccc21)CO3 (single isomer, unassigned) [Example 221] |  | 0.069 | 120 |  | 
13 | CO[C@@]1(CN2CCN3CCS(=O)(=O)C[C@@H]3C2)/C=C/C[C@H](C)[C@@H](C)S(=O)(=O)NC(=O)c2ccc3c(c2)N(C[C@@H]2CC[C@H]21)C[C@@]1(CCCc2cc(Cl)ccc21)CO3 (single isomer, unassigned) [Example 231] |  | 0.061 | 98 |  | 
14 | CO[C@@]1(CN2CCN3CCS(=O)(=O)C[C@@H]3C2)/C=C/C[C@H](C)[C@@H](C)S(=O)(=O)NC(=O)c2ccc3c(c2)N(C[C@@H]2CC[C@H]21)C[C@@]1(CCCc2cc(Cl)ccc21)CO3 (single isomer, unassigned) [Example 232] |  | 0.141 | 200 |  | 
15 | CO[C@]1(CN2CCN3CCN(S(C)(=O)=O)C[C@@H]3C2)/C=C/C[C@H](C)[C@@H](C)S(=O)(=O)NC(=O)c2ccc3c(c2)N(C[C@@H]2CC[C@H]21)C[C@@]1(CCCc2cc(Cl)ccc21)CO3 (single isomer, unassigned) [Example 237] |  | 0.13 | 64 |  | 
16 | CO[C@@]1(CCN(C)C2CCCC2)/C=C/C[C@H](C)[C@@H](C)S(=O)(=O)NC(=O)c2ccc3c(c2)N(C[C@@H]2CC[C@H]21)C[C@@]1(CCCc2cc(Cl)ccc21)CO3 [Example 100418, (1S,3′R,6′R,7′S,8′E,11′S,12′R)-6-chloro-7′-(2-(cyclopentyl(methyl)amino)ethyl)-7′-methoxy-11′,12′-dimethyl-3,4-dihydro-2H,15′H-spiro[naphthalene-1,22′-[20]oxa[13]thia[1,14]diazatetracyclo [14.7.2.0~3,6~.0~19,24~]pentacosa[8,16,18,24]tetraen]-15′-one 13′,13′-dioxide] |  |  |  |  | 0.098
17 | C[C@@H]1[C@@H](C)C/C=C/[C@@](O)(C#CCCCN2CCOCC2)[C@@H]2CC[C@H]2CN2C[C@@]3(CCCc4cc(Cl)ccc43)COc3ccc(cc32)C(=O)NS1(=O)=O [Example 100493, (1S,3′R,6′R,7′S,8′E,11′S,12′R)-6-chloro-7′-hydroxy-11′,12′-dimethyl-7′-(5-(4-morpholinyl)-1-pentyn-1-yl)-3,4-dihydro-2H,15′H-spiro[naphthalene-1,22′-[20]oxa[13]thia[1,14]diazatetracyclo [14.7.2.0~3,6~.0~19,24~]pentacosa[8,16,18,24]tetraen]-15′-one 13′,13′-dioxide] |  |  |  |  | 0.322
18 | C[C@@H]1[C@@H](C)C/C=C/[C@](O)(C#CCCCN2CCOCC2)[C@@H]2CC[C@H]2CN2C[C@@]3(CCCc4cc(Cl)ccc43)COc3ccc(cc32)C(=O)NS1(=O)=O [Example 100494, (1S,3′R,6′R,7′R,8′E,11′S,12′R)-6-chloro-7′-hydroxy-11′,12′-dimethyl-7′-(5-(4-morpholinyl)-1-pentyn-1-yl)-3,4-dihydro-2H,15′H-spiro[naphthalene-1,22′-[20]oxa[13]thia[1,14]diazatetracyclo [14.7.2.0~3,6~.0~19,24~]pentacosa[8,16,18,24]tetraen]-15′-one 13′,13′-dioxide] |  |  |  |  | 0.078
